Four compounds from patent US20140148412A1, “NOVEL 17B-HETEROARYL-S[…] AS MODULATORS OF GABAA RECEPTORS” (THE REGENTS OF THE UNIVERSITY OF CLAIFORNIA, priority 2011, published 2014) can be followed below.

In data set [1] the test system is mice. The experiment in a line: Mouse rotarod (RR). Format: in vivo. As to conditions: dosed in 20% 2-hydroxypropyl-β-cyclodextrin. The procedure: Naïve mice were trained on a RR (Columbus Instruments, Columbus, Ohio) in 4 sessions (6-15 rpm) over 2 days to successfully complete the 2-min trial prior to final testing (6 rpm). On day 3, the mice were administered compound and tested over a period of 360 min at various intervals. The percentage of animals remaining on the RR throughout each 2-min trial was recorded. The results that coincided with the time of peak effect were analyzed by the method of Litchfield and Wilcoxon (Litchfield and Wilcoxon, J. Pharmacol. Exp. Ther., 1949, 96, 99) to determine the AD50 (ataxic half-maximal dose where half of the mice fail the RR assay). Compounds that have activity in the rotarod assay can indicate CNS depressive activity and sedative activity.
(In general: In the rotarod test animals must keep their balance on a rotating rod.)

Data set [2] deals with mice. The experiment in a line: Mouse elevated plus maze (EPM). Format: in vivo. As to conditions: dosed in 20% 2-hydroxypropyl-β-cyclodextrin. As to the method: Mouse Elevated Plus Maze (EPM)
Mice were group housed and handled daily for 3 days prior to testing in the EPM (Coulbourn Instruments). Testing was conducted in a dimly lit room, with two 60 W bulbs pointed at the ceiling near the open arms (4 ft. above the maze). The maze was cleaned between each run. Automated counting of time spent in the open arms of the maze was achieved by using Med Associates (St. Albans, Vt.) MedPC-IV program. Data were analyzed with GraphPad Prism 4.0 for statistical significance by one-way ANOVA with Dunnett's multiple comparison post-hoc test. Compounds that increase the amount of time the animals spend in the open arms have activity as anxiolytics.

For data set [3], the system named is pentylenetetrazole-induced seizures. The experiment in a line: Anticonvulsant assay, protection from pentylenetetrazole-induced seizures. As to conditions: oral dosing in 20% 2-hydroxypropyl-β-cyclodextrin; dose protecting half the animals from seizures. Format: in vivo. As to the method: The ability of compounds to protect against pentylenetetrazole-induced seizures was carried out as described by Hogenkamp, et al. J. Med. Chem. 2007, 50, 3369. The dose that protected half the animals from seizures was determined as the ED50.

Data set [4] addresses GABAA receptors (rat cerebral cortex P2 homogenate). The experiment in a line: [35S]TBPS binding assay. As to conditions: inhibition of [35S]TBPS binding. As to the method: The cerebral cortex from male Sprague-Dawley rats (weighing 160-200 g) was removed immediately after decapitation and dissected over ice. A P2 homogenate was prepared for binding assay as previously described (Gee, 1987a). The tissue was homogenized in 0.32 M sucrose (J. T. Baker Chemical Co., Phillipsburg, N.J.) with a Teflon-coated pestle, followed by centrifugation at 1,000×g for 10 min. The supernatant was collected and centrifuged at 9,000×g for 20 min. The resultant P2 pellet was resuspended in ice-cold 50 mM sodium potassium phosphate buffer (pH 7.4) containing 200 mM NaCl and used immediately in binding assays. A 2 nM concentration of [^35S]TBPS (86 Ci/mmol; New England Nuclear, Boston, Mass.) was incubated with 100 μL of tissue homogenate (10% w/v) in the presence or absence of 5 μM GABA (Sigma Chem. Co., St. Louis, Mo.) and 5 μL aliquots of test drug dissolved in dimethyl sulfoxide (Sigma Chem. Co.) (≦10 μL of solvent used in all assays). At the concentration (≦1%) used, dimethyl sulfoxide had no effect on specific [^35S]TBPS binding. […] Filter-bound radioactivity was quantified by liquid scintillation spectrophotometry. The data were evaluated by nonlinear regression (GraphPad, Inc., San Diego, Calif.) to obtain IC50 (concentration at which half-maximal inhibition of radioligand occurs) and Imax (maximum percent inhibition) values. […]

In data set [5] the target is T1, human α1β1γ2 GABAA receptors (Homo sapiens, UniProt P14867+P18505).
T1 construct: expressed in transfected cells
T1 sequence (P14867 28-456): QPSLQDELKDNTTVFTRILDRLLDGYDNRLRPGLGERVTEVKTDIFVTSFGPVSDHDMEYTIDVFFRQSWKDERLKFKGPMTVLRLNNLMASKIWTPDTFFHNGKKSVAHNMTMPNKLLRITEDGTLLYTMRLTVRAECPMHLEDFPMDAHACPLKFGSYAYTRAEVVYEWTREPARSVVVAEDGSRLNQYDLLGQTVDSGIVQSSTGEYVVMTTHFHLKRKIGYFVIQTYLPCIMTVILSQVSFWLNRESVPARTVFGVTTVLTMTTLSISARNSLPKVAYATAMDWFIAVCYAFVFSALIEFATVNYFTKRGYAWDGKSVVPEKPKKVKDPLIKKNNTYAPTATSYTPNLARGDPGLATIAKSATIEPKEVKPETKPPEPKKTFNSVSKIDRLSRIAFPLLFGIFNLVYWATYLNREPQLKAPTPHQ
T1 sequence (P18505 26-474): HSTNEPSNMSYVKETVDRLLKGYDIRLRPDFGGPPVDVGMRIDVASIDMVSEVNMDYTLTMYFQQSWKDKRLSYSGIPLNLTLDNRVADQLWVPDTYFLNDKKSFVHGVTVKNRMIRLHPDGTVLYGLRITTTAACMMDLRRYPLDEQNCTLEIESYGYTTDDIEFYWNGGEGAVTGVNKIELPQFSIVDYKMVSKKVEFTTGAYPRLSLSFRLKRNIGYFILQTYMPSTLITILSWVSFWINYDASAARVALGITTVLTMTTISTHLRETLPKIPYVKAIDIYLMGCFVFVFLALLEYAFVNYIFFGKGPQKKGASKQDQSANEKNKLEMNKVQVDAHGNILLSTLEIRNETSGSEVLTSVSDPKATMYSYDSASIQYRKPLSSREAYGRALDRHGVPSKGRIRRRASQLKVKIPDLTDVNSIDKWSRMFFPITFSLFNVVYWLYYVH
T1 sequence (P18507 40-475 partner): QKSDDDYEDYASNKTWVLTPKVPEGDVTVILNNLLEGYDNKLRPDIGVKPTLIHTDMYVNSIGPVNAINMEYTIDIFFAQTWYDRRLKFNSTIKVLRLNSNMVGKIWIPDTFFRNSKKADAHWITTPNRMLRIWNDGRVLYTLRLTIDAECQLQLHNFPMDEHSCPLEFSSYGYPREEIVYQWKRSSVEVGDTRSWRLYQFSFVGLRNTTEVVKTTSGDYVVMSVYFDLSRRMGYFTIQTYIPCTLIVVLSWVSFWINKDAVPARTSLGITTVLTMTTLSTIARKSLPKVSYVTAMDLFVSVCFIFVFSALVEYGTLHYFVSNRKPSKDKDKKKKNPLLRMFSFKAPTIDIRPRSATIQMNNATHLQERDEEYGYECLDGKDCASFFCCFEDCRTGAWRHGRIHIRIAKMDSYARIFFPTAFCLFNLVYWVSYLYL
Put plainly: Oocyte electrophysiology, modulation of EC10 GABA response. Format: cell-based. The following applies: oocytes expressing human α1β1γ2 GABAA receptors; % modulation above EC10 GABA control. As to the method:
Preparation, micro-injection and maintenance of oocytes was as previously described (Ng et al., Proc. Natl. Acad. Sci., 2007, 104, 8059). Individual oocytes were injected with 0.005-50 ng of each subunit mRNA as follows (ratio of subunits in parentheses): GABAA receptor subunit combinations (α1,2, or 3, β1,2, or 3, γ2L or δ): (5:1:1). Stage IV-V oocytes were plucked from ovary membranes, defolliculized with collagenase Type IA (Worthington's) for 45 min and rinsed 10 times with Ringer's salt solution. cRNA was injected at 50 nL. Oocytes were tested 3-28 days after injection (n=3-7 per compound), in Ringer's salt solution by linear drug application method using electrodes with […] tip resistance. Changes in membrane current were passed through a pre-amp, then through a T200 patch amplifier (Axon Instruments), with a bandpass filter 2 kHz. pClamp software was used to monitor, record, and analyze data. All compounds were tested with a 30 second pretreatment prior to co-application with EC10 (concentration of GABA that evokes 10% of the maximum response) GABA for the control response. Responses in presence of test compound were calculated as % modulation above control. Concentration-response curves were fit to non-linear regression analysis on Prism 4.0 (GraphPad, San Diego, Calif.) for % maximal stimulation and EC50. […]

pIC50: −log10 of the molar value.

For `C[C@@]1(O)CC[C@@]2(C)[C@@H](CC[C@@H]3[C@@H]2CC[C@]2(C)[C@@H](c4cc(CO)on4)CC[C@@H]32)C1` [3-[3α-hydroxy-3β-methyl-5α-androstan-17β-yl]-5-(hydroxymethyl)isoxazole], the melting point – broadly, the temperature, or range, at which the solid turns liquid – fell in the range of 198.5 to 200 °C. In addition, the “oral AD50 (ataxic half-maximal dose)” value with mice [1] was determined as 43 mg/kg. The “minimum effective oral dose” value with mice [2] came to 1 mg/kg. Also, in data set [3], the 50% effect level (ED50) was put at a dose of 4 mg/kg.
Compound `C[C@@]1(O)CC[C@@]2(C)[C@@H](CC[C@@H]3[C@@H]2CC[C@]2(C)[C@@H](c4cc(CO)no4)CC[C@@H]32)C1` had a melting point of 192 to 193 °C.
`C[C@@]1(O)CC[C@@]2(C)[C@@H](CC[C@@H]3[C@@H]2CC[C@]2(C)[C@@H](c4cn5ccccc5n4)CC[C@@H]32)C1` [2-[3α-Hydroxy-3β-methyl-5α-androstan-17β-yl]-imidazo[1,2-a]pyridine]: in data set [4], the negative logarithm of the IC50 (pIC50) (commonly −log10 of the IC50, conventionally taken in molar units) was 6.00 and the “Imax (maximum percent inhibition)” value came to 100%.
`C[C@@]1(O)CC[C@@]2(C)[C@@H](CC[C@@H]3[C@@H]2CC[C@]2(C)[C@@H](c4ccno4)CC[C@@H]32)C1` [5-[3α-hydroxy-3β-methyl-5α-androstan-17β-yl]-isoxazole]: the maximum modulation in data set [5] was 400%.
